Reference: US10590078B2, “Sodium channel blockers” (Daewoong Pharmaceutical Co., Ltd., priority 2015, dated 2020)

Molecular target: human sodium ion channel 1.7 (hNav1.7) (Homo sapiens, UniProt Q15858)
Experiment: Blocking effect against sodium ion channel Nav1.7, IonFlux16 auto patch clamp in hNav1.7 HEK293 cells
Format: cell-based
Settings: hNav1.7 HEK293 cells; inhibition of peak current after 50 seconds treatment; eight concentrations; read-out: IC50

Chain of human sodium ion channel 1.7 (hNav1.7) (Q15858 whole entry): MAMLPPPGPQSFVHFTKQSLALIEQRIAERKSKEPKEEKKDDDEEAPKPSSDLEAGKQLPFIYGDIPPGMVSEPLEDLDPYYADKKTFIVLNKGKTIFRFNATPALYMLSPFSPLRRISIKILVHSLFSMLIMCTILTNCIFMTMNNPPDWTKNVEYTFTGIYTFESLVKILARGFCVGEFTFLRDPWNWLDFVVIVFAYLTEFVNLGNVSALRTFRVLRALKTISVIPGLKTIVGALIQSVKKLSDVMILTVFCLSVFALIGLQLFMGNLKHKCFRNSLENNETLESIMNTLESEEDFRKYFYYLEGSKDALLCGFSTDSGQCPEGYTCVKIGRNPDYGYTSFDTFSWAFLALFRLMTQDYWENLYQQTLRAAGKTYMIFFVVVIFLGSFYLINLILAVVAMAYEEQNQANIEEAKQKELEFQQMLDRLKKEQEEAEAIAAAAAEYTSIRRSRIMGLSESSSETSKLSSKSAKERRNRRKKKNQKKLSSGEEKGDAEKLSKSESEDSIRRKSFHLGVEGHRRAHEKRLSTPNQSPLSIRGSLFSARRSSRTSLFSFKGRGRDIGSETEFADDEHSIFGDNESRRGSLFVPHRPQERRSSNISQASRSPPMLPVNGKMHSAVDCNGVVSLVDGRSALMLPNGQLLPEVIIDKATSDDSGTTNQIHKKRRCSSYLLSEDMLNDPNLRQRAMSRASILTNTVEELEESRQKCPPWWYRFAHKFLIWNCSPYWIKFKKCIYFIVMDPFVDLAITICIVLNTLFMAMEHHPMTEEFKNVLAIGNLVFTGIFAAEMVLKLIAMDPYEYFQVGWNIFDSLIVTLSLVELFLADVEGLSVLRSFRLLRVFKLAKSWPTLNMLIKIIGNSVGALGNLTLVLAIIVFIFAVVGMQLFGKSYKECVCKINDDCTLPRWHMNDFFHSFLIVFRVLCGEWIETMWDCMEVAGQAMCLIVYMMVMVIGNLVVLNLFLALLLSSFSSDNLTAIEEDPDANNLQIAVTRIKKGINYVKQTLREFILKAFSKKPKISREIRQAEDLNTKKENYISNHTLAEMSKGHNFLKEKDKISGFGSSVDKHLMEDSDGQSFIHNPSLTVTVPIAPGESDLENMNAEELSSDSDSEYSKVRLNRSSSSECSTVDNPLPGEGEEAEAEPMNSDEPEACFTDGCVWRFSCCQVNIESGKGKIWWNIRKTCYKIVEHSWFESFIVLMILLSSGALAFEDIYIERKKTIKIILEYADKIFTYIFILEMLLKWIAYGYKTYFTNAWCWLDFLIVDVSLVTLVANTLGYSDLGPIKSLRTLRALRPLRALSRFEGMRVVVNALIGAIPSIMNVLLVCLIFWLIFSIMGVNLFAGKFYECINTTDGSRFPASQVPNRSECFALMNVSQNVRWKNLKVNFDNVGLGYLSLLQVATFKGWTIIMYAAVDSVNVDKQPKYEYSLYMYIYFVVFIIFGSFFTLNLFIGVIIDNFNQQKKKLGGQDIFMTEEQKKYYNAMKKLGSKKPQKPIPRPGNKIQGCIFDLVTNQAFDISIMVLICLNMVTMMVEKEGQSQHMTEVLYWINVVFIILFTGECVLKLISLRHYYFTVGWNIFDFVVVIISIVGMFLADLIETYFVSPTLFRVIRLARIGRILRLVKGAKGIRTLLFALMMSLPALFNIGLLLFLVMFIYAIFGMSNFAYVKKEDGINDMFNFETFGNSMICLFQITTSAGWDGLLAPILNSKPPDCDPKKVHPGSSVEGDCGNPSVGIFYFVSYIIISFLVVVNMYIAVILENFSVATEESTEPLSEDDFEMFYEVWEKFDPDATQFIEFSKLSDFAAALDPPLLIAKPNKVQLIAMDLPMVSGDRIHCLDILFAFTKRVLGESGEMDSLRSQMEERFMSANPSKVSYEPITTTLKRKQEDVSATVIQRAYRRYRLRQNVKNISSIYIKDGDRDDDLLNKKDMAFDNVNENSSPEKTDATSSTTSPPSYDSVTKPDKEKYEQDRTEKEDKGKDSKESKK

IC50 [nM] | SMILES
400 | CS(=O)(=O)NC(=O)c1cc(Cl)c(-n2cc(-c3ccc(F)cc3)c3cccnc32)cc1F [Example 226, 5-chloro-2-fluoro-4-(3-(4-fluorophenyl)-1H-pyrrolo[2,3-b]pyridin-1-yl)-N-(methylsulfonyl)benzamide]
80 | CS(=O)(=O)NC(=O)c1cc(Cl)c(-n2cc(-c3ccc(F)cc3F)c3cc(F)cnc32)cc1F [Example 203, 5-chloro-4-(3-(2,4-difluorophenyl)-5-fluoro-1H-pyrrolo[2,3-b]pyridin-1-yl)-2-fluoro-N-(methylsulfonyl)benzamide]
554 | CS(=O)(=O)NC(=O)c1cc(Cl)c(-n2nc(-c3ccc(C#N)cc3)c3cc(Cl)ccc32)cc1F [Example 62, 5-chloro-4-(5-chloro-3-(4-cyanophenyl)-1H-indazol-1-yl)-2-fluoro-N-(methylsulfonyl)benzamide]
300 to 1000 | CS(=O)(=O)NC(=O)c1cc(Cl)c(-n2cc(C(=O)O)c3cc(Cl)ccc32)cc1F [Example 265, 5-chloro-1-(2-chloro-5-fluoro-4-((methylsulfonyl)carbamoyl)phenyl)-1H-indole-3-carboxylic acid]
158 | CS(=O)(=O)NC(=O)c1cc(Cl)c(-n2nc(Cl)c3c(Cl)c(OCc4ccccc4F)ccc32)cc1F [Example 32, 5-chloro-4-(3,4-dichloro-5-((2-fluorobenzyl)oxy)-1H-indazol-1-yl)-2-fluoro-N-(methylsulfonyl)benzamide]
240 | CS(=O)(=O)NC(=O)c1cc(Cl)c(-n2nc(Cl)c3cc(-c4ccccc4Cl)ccc32)cc1F [Example 252, 5-chloro-4-(3-chloro-5-(2-chlorophenyl)-1H-indazol-1-yl)-2-fluoro-N-(methylsulfonyl)benzamide]
966 | CS(=O)(=O)NC(=O)c1cc(Cl)c(-n2nc(C#N)c3cc(Br)ccc32)cc1F [Example 22, 4-(5-bromo-3-cyano-1H-indazol-1-yl)-5-chloro-2-fluoro-N-(methylsulfonyl)benzamide]
365 | CS(=O)(=O)NC(=O)c1cc(Cl)c(-n2nc(Cl)c3cc([N+](=O)[O-])ccc32)cc1F [Example 23, 5-chloro-4-(3-chloro-5-nitro-1H-indazol-1-yl)-2-fluoro-N-(methylsulfonyl)benzamide]
2170 | CS(=O)(=O)NC(=O)c1cc(Cl)c(-n2nc(/C=C/c3ccccn3)c3cc(Cl)ccc32)cc1F [Example 134, (E)-5-chloro-4-(5-chloro-3-(2-(pyridin-2-yl)vinyl)-1H-indazol-1-yl)-2-fluoro-N-(methylsulfonyl)benzamide]
270 | CS(=O)(=O)NC(=O)c1cc(Cl)c(-n2cc(-c3cccc(C(F)(F)F)c3)c3cc(Cl)cnc32)cc1F [Example 192, 5-chloro-4-(5-chloro-3-(3-(trifluoromethyl)phenyl)-1H-pyrrolo[2,3-b]pyridin-1-yl)-2-fluoro-N-(methylsulfonyl)benzamide]
110 | CS(=O)(=O)NC(=O)c1cc(Cl)c(-n2nc(-c3ccccc3C(F)(F)F)c3cc(F)ccc32)cc1F [Example 145, 5-chloro-2-fluoro-4-(5-fluoro-3-(2-(trifluoromethyl)phenyl)-1H-indazol-1-yl)-N-(methylsulfonyl)benzamide]

The remaining lines, values behind:

SMILES | IC50 [nM]
CS(=O)(=O)NC(=O)c1cc(Cl)c(-n2cc(Cl)c3cc(OCc4ccccc4)ccc32)cc1F [Example 269, 4-(5-(benzyloxy)-3-chloro-1H-indol-1-yl)-5-chloro-2-fluoro-N-(methylsulfonyl)benzamide] | 142
CS(=O)(=O)NC(=O)c1cc(Cl)c(-n2nc(-c3ccccc3)c3cc(C4CC4)ccc32)cc1F [Example 26, 5-chloro-4-(5-cyclopropyl-3-phenyl-1H-indazol-1-yl)-2-fluoro-N-(methylsulfonyl)benzamide] | 100
CS(=O)(=O)NC(=O)c1ccc(-n2nc(-c3ccccc3C#N)c3cc(Cl)ccc32)c(C#N)c1 [Example 94, 4-(5-chloro-3-(2-cyanophenyl)-1H-indazol-1-yl)-3-cyano-N-(methylsulfonyl)benzamide] | > 10000
CS(=O)(=O)NC(=O)c1ccc(-n2nc(-c3ccc(Cl)cc3F)c3cc(Cl)ccc32)nc1 [Example 128, 6-(5-chloro-3-(4-chloro-2-fluorophenyl)-1H-indazol-1-yl)-N-(methylsulfonyl)nicotinamide] | 1330
CS(=O)(=O)NC(=O)c1cc(Cl)c(-n2nc(Cl)c3cc(OCc4ccccc4)ccc32)cc1F [Example 28, 4-(5-(benzyloxy)-3-chloro-1H-indazol-1-yl)-5-chloro-2-fluoro-N-(methylsulfonyl)benzamide] | 49
CS(=O)(=O)NC(=O)c1cc(Cl)c(-n2nc(-c3ccc(Cl)cc3)c3cc(Cl)ccc32)cc1F [Example 67, 5-chloro-4-(5-chloro-3-(4-chlorophenyl)-1H-indazol-1-yl)-2-fluoro-N-(methylsulfonyl)benzamide] | 33
Cc1nn(-c2cc(F)c(C(=O)NS(C)(=O)=O)cc2Cl)c2ccc(OCc3ccccc3)cc12 [Example 30, 4-(5-(benzyloxy)-3-methyl-1H-indazol-1-yl)-5-chloro-2-fluoro-N-(methylsulfonyl)benzamide] | 247
Cn1nccc1-c1ccc2c(c1)c(Cl)nn2-c1cc(F)c(C(=O)NS(C)(=O)=O)cc1Cl [Example 256, 5-chloro-4-(3-chloro-5-(1-methyl-1H-pyrazol-5-yl)-1H-indazol-1-yl)-2-fluoro-N-(methylsulfonyl)benzamide] | 3990
O=S(=O)(Nc1ncns1)c1cc(F)c(-n2nc(Cl)c3cc(C(F)(F)F)ccc32)cc1F [Example 281, 4-(3-chloro-5-(trifluoromethyl)-1H-indazol-1-yl)-2,5-difluoro-N-(1,2,4-thiadiazol-5-yl)benzenesulfonamide] | 3000 to 10000
CS(=O)(=O)NC(=O)c1cc(Cl)c(-n2nc(Cl)c3cc(Cl)cnc32)cc1F [Example 3, 5-chloro-4-(3,5-dichloro-1H-pyrazolo[3,4-b]pyridin-1-yl)-2-fluoro-N-(methylsulfonyl)benzamide] | 1130
COc1ccc(-c2ccc3c(c2)c(Cl)nn3-c2cc(F)c(C(=O)NS(C)(=O)=O)cc2Cl)cc1 [Example 248, 5-chloro-4-(3-chloro-5-(4-methoxyphenyl)-1H-indazol-1-yl)-2-fluoro-N-(methylsulfonyl)benzamide] | 88
CS(=O)(=O)NC(=O)c1cc(Cl)c(-n2cc(-c3cc(Cl)ccc3F)c3cccnc32)cc1F [Example 219, 5-chloro-4-(3-(5-chloro-2-fluorophenyl)-1H-pyrrolo[2,3-b]pyridin-1-yl)-2-fluoro-N-(methylsulfonyl)benzamide] | 300
Cc1cccc(-c2cn(-c3cc(F)c(C(=O)NS(C)(=O)=O)cc3Cl)c3ncccc23)c1 [Example 215, 5-chloro-2-fluoro-N-(methylsulfonyl)-4-(3-(m-tolyl)-1H-pyrrolo[2,3-b]pyridin-1-yl)benzamide] | 210
CS(=O)(=O)NC(=O)c1ccc(-n2nc(-c3ccccc3C(F)(F)F)c3cc(Cl)ccc32)c(C#N)c1 [Example 97, 4-(5-chloro-3-(2-(trifluoromethyl)phenyl)-1H-indazol-1-yl)-3-cyano-N-(methylsulfonyl)benzamide] | 170
CS(=O)(=O)NC(=O)c1cc(Cl)c(-n2cc(-c3cc(F)cc(Cl)c3)c3cccnc32)cc1F [Example 220, 5-chloro-4-(3-(3-chloro-5-fluorophenyl)-1H-pyrrolo[2,3-b]pyridin-1-yl)-2-fluoro-N-(methylsulfonyl)benzamide] | 540
CS(=O)(=O)NC(=O)c1cc(Cl)c(-n2nc(-c3ccccc3)c3cc(-c4ccccc4)ccc32)cc1F [Example 264, 5-chloro-4-(3,5-diphenyl-1H-indazol-1-yl)-2-fluoro-N-(methylsulfonyl)benzamide] | 164
CS(=O)(=O)NC(=O)c1cc(Cl)c(-n2nc(-c3ccccc3)c3cc(Cl)ccc32)cc1F [Example 48, 5-chloro-4-(5-chloro-3-phenyl-1H-indazol-1-yl)-2-fluoro-N-(methylsulfonyl)benzamide] | 48
CS(=O)(=O)NC(=O)c1cc(Cl)c(-n2nc(-c3cc[nH]n3)c3cc(Cl)ccc32)cc1F [Example 90, 5-chloro-4-(5-chloro-3-(1H-pyrazol-3-yl)-1H-indazol-1-yl)-2-fluoro-N-(methylsulfonyl)benzamide] | 11200
CS(=O)(=O)NC(=O)c1ccc(-n2nc(-c3ccc(F)cc3)c3cc(Cl)ccc32)c(F)c1 [Example 123, 4-(5-chloro-3-(4-fluorophenyl)-1H-indazol-1-yl)-3-fluoro-N-(methylsulfonyl)benzamide] | 350
CS(=O)(=O)NC(=O)c1cc(Cl)c(-n2nc(-c3ccc(F)cc3F)c3ccccc32)cc1F [Example 176, 5-chloro-4-(3-(2,4-difluorophenyl)-1H-indazol-1-yl)-2-fluoro-N-(methylsulfonyl)benzamide] | 200
CS(=O)(=O)NC(=O)c1cc(Cl)c(-n2nc(Cl)c3cc(-c4ccccc4C(F)(F)F)ccc32)cc1F [Example 250, 5-chloro-4-(3-chloro-5-(2-(trifluoromethyl)phenyl)-1H-indazol-1-yl)-2-fluoro-N-(methylsulfonyl)benzamide] | 67
CS(=O)(=O)NC(=O)c1cc(Cl)c(-n2nc(-c3ccc(Cl)cc3F)c3ccccc32)cc1F [Example 184, 5-chloro-4-(3-(4-chloro-2-fluorophenyl)-1H-indazol-1-yl)-2-fluoro-N-(methylsulfonyl)benzamide] | 70
CC(C)COc1ccc2c(cnn2-c2cc(F)c(C(=O)NS(C)(=O)=O)cc2Cl)c1 [Example 41, 5-chloro-2-fluoro-4-(5-isobutoxy-1H-indazol-1-yl)-N-(methylsulfonyl)benzamide] | 6340
CS(=O)(=O)NC(=O)c1cc(Cl)c(-n2nc(-c3cccc(Cl)c3)c3cc(Cl)ccc32)cc1F [Example 72, 5-chloro-4-(5-chloro-3-(3-chlorophenyl)-1H-indazol-1-yl)-2-fluoro-N-(methylsulfonyl)benzamide] | 61
CS(=O)(=O)NC(=O)c1cc(Cl)c(-n2nc(-c3ccc(Cl)c(F)c3)c3cc(Cl)ccc32)cc1F [Example 80, 5-chloro-4-(5-chloro-3-(4-chloro-3-fluorophenyl)-1H-indazol-1-yl)-2-fluoro-N-(methylsulfonyl)benzamide] | 80
